≈ marks a conversion by molar mass, not a printed value.

As usually defined, the viability is the share of living cells, or the viability signal relative to a control.

In one data set the test system is C. albicans B4. Briefly: microbe, parasite or virus in culture. To be noted: Candida albicans, B4, 48 h. The class given is cell-based, Candida albicans. The text has this: (§1) The C. albicans CAF2-1 (Genotype/Description: ura3Δ::imm434/URA3[89]) and DSY1050 (Genotype/Description: cdr1Δ::hisG/cdr1Δ::hisG/cdr2Δ::hisG/cdr2Δ::hisG/mdr1Δ::hisG-URA3-hisG/mdr1Δ::hisG[90]) strains used in this study were generous gift from D. Sanglard (Lausanne, Switzerland)[91],[92] whereas C. albicans B3 and Gu4 (Genotype/Description: clinical isolates fluconazole sensitive)[93]), B4 (Genotype/Description: Clinical isolate fluconazole resistant due to the overexpression of MDR1[93]) and Gu5 (Genotype/Description: Clinical isolate fluconazole resistant due to the overexpression of CDR1 and CDR2[93]) were a generous gift from prof. S. Milewski (Gdańsk, Poland)[94] and prof. J. Morschhäuser (Wurzburg, Germany)[93]. All strains were grown at 37 °C on Sabouraud medium (Biomerieux).
(§2) The antifungal activity was determined on the 96-well polystyrene microtiter plates (Sarstedt) according to Clinical and Laboratory Standards Institute M27-A3[95]. […] The compounds were dissolved in DMSO (10 mM) and then serially diluted in RPMI-1640 (ThermoFisher) medium to obtain the final concentration range. Inocula of all strains were prepared as suspensions with turbidity of 0.5 McFarland standard in sterile 0.85% saline and diluted in RPMI-1640. After inoculation, each well contained appr. 5 × 10^2 CFU/mL. The plates were cultivated for 48 h at 37 °C. Optical density was measured at A490nm using a microplate reader ASYS UVM 340 (Biogenet).

Data set [1] relates to C. albicans CAF2-1. Briefly: microbe, parasite or virus in culture. The class given is cell-based, Candida albicans. To be noted: Candida albicans, CAF21, 48 h.
Text: as §1, §2

The subject of the next data set is C. albicans DSY1050. As to the kind of experiment: microbe, parasite or virus in culture. Format: cell-based, Candida albicans. To be noted: Candida albicans, DSY1050, 48 h.
Text: as §1, §2

A further data set deals with C. albicans Gu5. Briefly: microbe, parasite or virus in culture. The class given is cell-based, Candida albicans. To be noted: Candida albicans, GU5, 48 h.
Text: as §1, §2

A further data set relates to C. albicans B3. As to the kind of experiment: microbe, parasite or virus in culture. The class given is cell-based. To be noted: Candida albicans, B3, 48 h.
Text: as §1, §2

The next data set has as its system C. albicans Gu4. As to the kind of experiment: microbe, parasite or virus in culture. Format: cell-based. To be noted: Candida albicans, GU4, 48 h.
Text: as §1, §2

In data set [2] the test system is C. albicans CAF2-1. Briefly: microbe, parasite or virus in culture. Format: cell-based, Candida albicans. To be noted: Candida albicans, CAF21, read-out: Viability of C. albicans CAF2-1. The method, then: The synergistic effects of KeOP/KeP with Flc were determined using the M27-A3 method with modifications. Flc and KeOP/KeP stock solutions in DMSO (10 mM) were (alone and simultaneously) diluted in RPMI-1640 medium to obtain final concentrations of^1/8; ^1/4; ^1/2; 1 × MIC50 towards C. albicans CAF2-1 strain in microdilution sterile plates (Sarstedt). Statistical significance analysis was performed using Student’s t-test ([…], unpaired) comparing viability in the presence of corresponding Flc concentrations with/without KeOP/KeP.

Data set [3] has as its system hASCs (human adipose-derived stromal cells). Briefly: Cytotoxicity IC50, TOX-8 resazurin assay, hASCs, 24 h. Format: cell-based. How it is done:
Human Adipose Tissue-derived Stem Cells (hASCs) were isolated from subcutaneous adipose tissue fragments harvested from non-diabetic female donors (age range 33–38, n = 2) during standard surgical procedure of total hip arthroplasty. Immediately after collection of tissue, the samples were placed in sterile tissue-transport medium (Hank’s Balanced Salt Solution (HBSS) supplemented with 1% Penicillin/Streptomycin/Amphotericin B solution (P/S/A). Mesenchymal stromal cell isolation was performed using enzymatic digestion of extracellular matrix with collagenase type I. Before digestion, tissue specimens were washed twice with HBSS and incubated in collagenase type I solution (1 mg/mL) at 37 °C for 40 min. The digest was subsequently centrifuged (1200 × g; 10 minutes; room temperature) and the cell pellet was resuspended in Dulbecco’s modified Eagle’s medium (DMEM) with Nutrient F-12 Ham, 10% of Fetal Bovine Serum (FBS), and 1% of P/S/A, transferred to a culture flask, and kept in culture under optimal conditions (37 °C in a humidified atmosphere of 5% CO2). The medium was refreshed every 2–3 days. At 80–90% confluence, the cells were passaged using trypsin solution (TrypLE Express, Life Technologies, California, USA). At passage 3, hASCs were collected and cellular phenotype was confirmed by the high expression of markers CD44, CD29, CD73, CD105 and low expression of CD45. Moreover, the trilineage differentiation capacity of ASCs was confirmed as previously described.
The IC50 values were determined using in vitro Toxicology TOX-8 Assay Kit (resazurin based) according to the manufacturer’s protocol. For this assay, cells were seeded in a 96-well plate at a density of 5 × 10^3 cells/well. The cells were pre-incubated in drug-free complete medium for 24 h before adding various concentrations of the compounds to be investigated. Stock solutions of the compounds were prepared in DMSO following serial dilutions in DMEM with Nutrient F-12 Ham complete medium. The cells exposure period was 24 h. After that time media were replaced with 10% v/v resazurin dye solution in fresh complete culture medium. Incubation was carried out for 2 h at 37 °C in the CO2 incubator. Reduction of the dye was measured spectrophotometrically at 600 nm and 690 nm reference wavelength (Epoch, Biotek). Absorbance measurements allowed the determination of viable treated cells relative to untreated controls using the inflection point of a dose-response graph. IC50 values were estimated as duplicates of triplicate readings in two independent experiments.
For orientation: Alamar Blue is a resazurin reagent that responds to reducing activity.

For data set [4] the following is noted: cited from earlier work.

As to `OC(Cn1cncn1)(Cn1cncn1)c1ccc(F)cc1F` [Flc, fluconazole, reference compound], the MIC50 is 50 µM (≈ 15.3 µg/mL) with C. albicans B4; 6.25 µM (≈ 1.91 µg/mL) in the data set on C. albicans CAF2-1 [1]; 0.78 µM (≈ 0.239 µg/mL) in the data set with C. albicans DSY1050; above 200 µM in the data set on C. albicans Gu5; 6.25 µM (≈ 1.91 µg/mL) against C. albicans B3; 6.25 µM (≈ 1.91 µg/mL) against C. albicans Gu4. Also, the viability at 0.78 µM in the data set on C. albicans CAF2-1 [2] stood at 86.9 ± 7.84%. In addition, the viability at 1.56 µM in the data set with C. albicans CAF2-1 [2] was 71.3 ± 13.9%. Besides, the viability at 3.13 µM in the data set on C. albicans CAF2-1 [2] is 73.8 ± 4.35%. Also, in the data set with C. albicans CAF2-1 [2], the viability at 6.25 µM stood at 38 ± 8.94%. For the same molecule, in [3], the “IC50 (cytotoxicity, hASCs viability)” value is on record as “not cytotoxic in the tested concentration range”. For the same molecule, the “fold less active in vitro than Ke” value in data set [4] is on record as “approximately 16 fold”.

The values above are taken from PMC6838151 (Scientific Reports, 2019).
